What was measured:
Experiment in all cases: relative viability (nuclei count vs DMSO), 5 days (fraction); higher = more cells survive
[1] = compound: CC[C@H](CO)Nc1nc(NCc2ccccc2)c2ncn(C(C)C)c2n1 [Seliciclib] + Cc1cc(Nc2cc(N3CCN(C)CC3)nc(Sc3ccc(NC(=O)C4CC4)cc3)n2)n[nH]1 [Tozasertib] (partner 0.1 µM)
Procedure, shortened: (§1)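 Relative viability is defined as nuclei in treated wells over nuclei in vehicle wells. Duplicate plates were run and medians reported. Lung cancer cell lines in 1536-well plates were dosed by pin tool one day after seeding, with one drug or with a fixed anchor-drug dose plus five library-drug doses (not always all listed) in √10 steps, and nuclei were counted after 5 days.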

[2] = compound: CC[C@H](CO)Nc1nc(NCc2ccccc2)c2ncn(C(C)C)c2n1 [Seliciclib] + CC1(C)CCC(c2ccc(Cl)cc2)=C(CN2CCN(c3ccc(C(=O)NS(=O)(=O)c4ccc(N[C@H](CCN5CCOCC5)CSc5ccccc5)c(S(=O)(=O)C(F)(F)F)c4)cc3)CC2)C1 [Navitoclax] (partner 0.5 µM)
Procedure, shortened: as §1

[3] = compound: CC[C@H](CO)Nc1nc(NCc2ccccc2)c2ncn(C(C)C)c2n1 [Seliciclib] + C[C@@H](Oc1cc(-c2cnn(C3CCNCC3)c2)cnc1N)c1c(Cl)ccc(F)c1Cl [Crizotinib] (partner 1 µM)
Procedure, shortened: as §1

[4] = compound: CC[C@H](CO)Nc1nc(NCc2ccccc2)c2ncn(C(C)C)c2n1 [Seliciclib] + O=C(CCCCCCC(=O)Nc1ccccc1)NO [Vorinostat] (partner 1 µM)
Procedure, shortened: as §1

## HARA
[1]; first compound 0.08 µM
  relative viability: 0.0937
[1]; first compound 0.253 µM
  relative viability: 0.0958
[1]; first compound 0.8 µM
  relative viability: 0.111
[1]; first compound 2.53 µM
  relative viability: 0.782
[1]; first compound 8 µM
  relative viability: 0.0956
[2]; first compound 0.08 µM
  relative viability: 1.13
[2]; first compound 0.253 µM
  relative viability: 1.23
[2]; first compound 0.8 µM
  relative viability: 1.11
[2]; first compound 2.53 µM
  relative viability: 1.16
[2]; first compound 8 µM
  relative viability: 1.07
[3]; first compound 0.08 µM
  relative viability: 1.06
[3]; first compound 0.253 µM
  relative viability: 1.16
[3]; first compound 0.8 µM
  relative viability: 1.06
[3]; first compound 2.53 µM
  relative viability: 1.21
[3]; first compound 8 µM
  relative viability: 0.638
[4]; first compound 0.08 µM
  relative viability: 0.555
[4]; first compound 0.253 µM
  relative viability: 0.518
[4]; first compound 0.8 µM
  relative viability: 0.588
[4]; first compound 2.53 µM
  relative viability: 0.381
[4]; first compound 8 µM
  relative viability: 0.487

## NCI-H2126
[1]; first compound 0.08 µM
  relative viability: 0.868
[1]; first compound 0.253 µM
  relative viability: 0.823
[1]; first compound 0.8 µM
  relative viability: 0.846
[1]; first compound 2.53 µM
  relative viability: 0.676
[1]; first compound 8 µM
  relative viability: 0.736
[2]; first compound 0.08 µM
  relative viability: 0.817
[2]; first compound 0.253 µM
  relative viability: 0.799
[2]; first compound 0.8 µM
  relative viability: 0.844
[2]; first compound 2.53 µM
  relative viability: 0.878
[2]; first compound 8 µM
  relative viability: 0.787
[3]; first compound 0.08 µM
  relative viability: 0.988
[3]; first compound 0.253 µM
  relative viability: 0.979
[3]; first compound 0.8 µM
  relative viability: 0.965
[3]; first compound 2.53 µM
  relative viability: 0.992
[3]; first compound 8 µM
  relative viability: 0.861
[4]; first compound 0.08 µM
  relative viability: 0.806
[4]; first compound 0.253 µM
  relative viability: 0.783
[4]; first compound 0.8 µM
  relative viability: 0.579
[4]; first compound 2.53 µM
  relative viability: 0.375
[4]; first compound 8 µM
  relative viability: 0.611

## LXF-289
[1]; first compound 0.08 µM
  relative viability: 0.189
[1]; first compound 0.253 µM
  relative viability: 0.192
[1]; first compound 0.8 µM
  relative viability: 0.203
[1]; first compound 2.53 µM
  relative viability: 0.18
[1]; first compound 8 µM
  relative viability: 0.158
[2]; first compound 0.08 µM
  relative viability: 0.937
[2]; first compound 0.253 µM
  relative viability: 1.03
[2]; first compound 0.8 µM
  relative viability: 0.795
[2]; first compound 2.53 µM
  relative viability: 0.934
[2]; first compound 8 µM
  relative viability: 0.914
[3]; first compound 0.08 µM
  relative viability: 0.82
[3]; first compound 0.253 µM
  relative viability: 0.871
[3]; first compound 0.8 µM
  relative viability: 0.779
[3]; first compound 2.53 µM
  relative viability: 0.835
[3]; first compound 8 µM
  relative viability: 0.638
[4]; first compound 0.08 µM
  relative viability: 0.735
[4]; first compound 0.253 µM
  relative viability: 0.824
[4]; first compound 0.8 µM
  relative viability: 0.671
[4]; first compound 2.53 µM
  relative viability: 0.582
[4]; first compound 8 µM
  relative viability: 0.457

## NCI-H460
[1]; first compound 0.08 µM
  relative viability: 0.525
[1]; first compound 0.253 µM
  relative viability: 0.561
[1]; first compound 0.8 µM
  relative viability: 0.502
[1]; first compound 2.53 µM
  relative viability: 0.465
[1]; first compound 8 µM
  relative viability: 0.363
[2]; first compound 0.08 µM
  relative viability: 1.1
[2]; first compound 0.253 µM
  relative viability: 1.13
[2]; first compound 0.8 µM
  relative viability: 1.03
[2]; first compound 2.53 µM
  relative viability: 1.1
[2]; first compound 8 µM
  relative viability: 0.801
[3]; first compound 0.08 µM
  relative viability: 0.787
[3]; first compound 0.253 µM
  relative viability: 0.821
[3]; first compound 0.8 µM
  relative viability: 0.837
[3]; first compound 2.53 µM
  relative viability: 1.36
[3]; first compound 8 µM
  relative viability: 0.722
[4]; first compound 0.08 µM
  relative viability: 0.709
[4]; first compound 0.253 µM
  relative viability: 0.809
[4]; first compound 0.8 µM
  relative viability: 0.671
[4]; first compound 2.53 µM
  relative viability: 0.901
[4]; first compound 8 µM
  relative viability: 0.552

## NCI-H2009
[1]; first compound 0.08 µM
  relative viability: 0.767
[1]; first compound 0.253 µM
  relative viability: 0.742
[1]; first compound 0.8 µM
  relative viability: 0.809
[1]; first compound 2.53 µM
  relative viability: 0.69
[1]; first compound 8 µM
  relative viability: 0.635
[2]; first compound 0.08 µM
  relative viability: 1.14
[2]; first compound 0.253 µM
  relative viability: 1.17
[2]; first compound 0.8 µM
  relative viability: 1.13
[2]; first compound 2.53 µM
  relative viability: 1.2
[2]; first compound 8 µM
  relative viability: 1.08
[3]; first compound 0.08 µM
  relative viability: 1.04
[3]; first compound 0.253 µM
  relative viability: 0.963
[3]; first compound 0.8 µM
  relative viability: 1.06
[3]; first compound 2.53 µM
  relative viability: 0.987
[3]; first compound 8 µM
  relative viability: 0.989
[4]; first compound 0.08 µM
  relative viability: 0.742
[4]; first compound 0.253 µM
  relative viability: 0.862
[4]; first compound 0.8 µM
  relative viability: 0.753
[4]; first compound 2.53 µM
  relative viability: 0.687
[4]; first compound 8 µM
  relative viability: 0.671

From the supplement of paper PMC10307832
